From US20100093706A1, “MULTIMEDIATOR TRANSPORTER INHIBITORS FOR USE IN TREATMENT OF CENTRAL NERVOUS SYSTEM DISORDERS” (priority 2006, published 2010)

Assays:
[1] = target: T1, DAT (SLC6A3) (Homo sapiens, UniProt Q01959); assay: in vitro inhibition profile, IC50 of DAT (uptake assay); type: cell-based
T1 construct: expressed in transfected cells
Protocol: Before the assay, cells expressing DAT are washed once with KRH and equilibrated for 5 min. The cells may be assayed in 24-well plates and incubated for 2-5 min. with tritiated amines. Nontransported inhibitors were preincubated for 5 min, and substrates were applied together with the tritiated substrate.
Experiments to determine the ionic requirements for DAT-mediated uptake are done in KRH buffer, substituting LiCl or choline Cl for NaCl (sodium-dependence) or substituting D-gluconates for NaCl and KCl, and Ca(NO3)2 for CaCl2 (chloride dependence). Cells are washed twice with sodium- or chloride-free KRH before the assay (each wash step at least 5 min). In all transport assays, incubation periods and substrate concentrations are chosen such that uptake obeyed first-order rate kinetics.
Vmax values for amine uptake in stable transfected DAT-cells are determined in parallel assays for at least two amines per experiment and expressed as relative values.

[2] = test system: rats; assay: forced swim test (behavioral despair assay) in rats; type: in vivo; settings: rat
Protocol: In vivo efficacy of several illustrative inhibitors of the instant invention, (1), (3), and (4), were measured using standard forced swim test model using rat. The objective of this study was to assess the antidepressant effects of test compounds in the behavioral despair assay in rats using a modification of a method described by Porsolt R. D. et al. in Behavioural despair in rats: a new model sensitive to antidepressant treatment, Eur. J. Pharmacol., 47: 379-391, 1978; Porsolt et al., Nature 266: 730-732, 1977; and Porsolt et al., in Psychopharmacology, Olivier, Mos, and Slangen (eds) Birkhäuser Verlag, Basel, pp. 137-159, 1991. Briefly, when mice (or rats) are forced to swim in a cylinder from which no escape is possible, they readily adopt a characteristic immobile posture and make no further attempts to escape except for small movements needed to keep floating. The immobility is considered by some to reflect a “depressive mood” (Porsolt et al., Nature 266: 730-732, 1977) in which animals cease to struggle to escape the aversive situation. The immobility induced by the procedure is influenced by a wide variety of antidepressants (Porsolt et al., in Psychopharmacology, Olivier, Mos, and Slangen (eds) Birkhauser Verlag, Basel, pp. 137-159, 1991) and has a good predictive validity in that it detects antidepressants with different mechanisms of action (TCAs, SSRIs, MAOIs, and other atypical ones). The test is sensitive to muscle-relaxant (benzodiazepines) and sedative (neuroleptics) effects, leading to enhanced immobility (Porsolt et al., supra).
In a typical experiment, animals are placed singly into a cylinder (e.g. 46×30 cm) containing fresh water at about 20° C. for 6 minutes. The activity (or immobility) of the animal is measured by an observer minute by minute. In more detail, the animals were preconditioned in a pretest session, where the rats were individually forced to swim inside a vertical plexiglass cylinder containing water maintained at 19-20° C. After 15 minutes in the water, they were allowed to dry for […] in a heated enclosure. Twenty-four hours later, the compounds were administered either intraperitoneally or orally to the animals. One hour after administration of the test compound, animals were put back into the cylinder containing water. The total duration of immobility was measured during the last 4 minutes of a 6 minute test.
The results are expressed as the percentage of variation of the total duration of immobility calculated from the mean value of the vehicle-treated group (% variation=[(immobility duration of vehicle−immobility duration of test compound)/(immobility duration of vehicle)]×100%).
In order to measure the in vivo efficacy of inhibiting DAT in rats using an inhibitor of the instant invention, one test inhibitor ((1), (3), or (4)) was injected i.p. as racemic mixtures of diastereomers into the animals, at various-doses (e.g. 7.5 and […]). Sibutramine (2.0 and 2.5 mg/kg), Bupropion (7.5 and 10 mg/kg), and Imipramine (30 mg/kg) were similarly administered as controls. […] Asterisks indicate highly statistical significant results.
A fourth inhibitor, (6) was administered p.o. as a racemic mixture of diastereomers at either 35 or 75 mg/kg. Sibutramine (5.0 and 3.75 mg/kg), Bupropion (30 and 40 mg/kg), and Imipramine (100 mg/kg) were similarly administered as controls.
Similarly, (1) was also administered p.o. as a racemic mixture of enriched (95:5) diastereomer at either 35 or 75 mg/kg. […]

T1 sequence (Q01959 whole entry): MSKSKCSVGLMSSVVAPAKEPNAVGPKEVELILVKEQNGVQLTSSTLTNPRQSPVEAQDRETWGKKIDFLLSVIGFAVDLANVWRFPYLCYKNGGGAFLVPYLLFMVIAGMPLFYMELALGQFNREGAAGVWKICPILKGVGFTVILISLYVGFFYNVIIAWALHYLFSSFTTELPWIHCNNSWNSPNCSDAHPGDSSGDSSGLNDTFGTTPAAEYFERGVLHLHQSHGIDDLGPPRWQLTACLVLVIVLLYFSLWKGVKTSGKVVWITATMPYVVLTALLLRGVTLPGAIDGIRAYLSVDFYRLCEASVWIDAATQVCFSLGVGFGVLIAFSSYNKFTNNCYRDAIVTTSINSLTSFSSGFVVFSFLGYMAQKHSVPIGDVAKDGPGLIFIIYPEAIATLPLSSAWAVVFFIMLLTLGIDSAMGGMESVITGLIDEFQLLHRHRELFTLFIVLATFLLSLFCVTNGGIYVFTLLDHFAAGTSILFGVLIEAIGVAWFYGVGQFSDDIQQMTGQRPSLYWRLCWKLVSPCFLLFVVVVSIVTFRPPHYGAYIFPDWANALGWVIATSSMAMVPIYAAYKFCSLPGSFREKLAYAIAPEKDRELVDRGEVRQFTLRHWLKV

CC1CCN(CC2(c3ccc(Cl)cc3)CCC2)CC1COc1ccc(C(F)(F)F)cc1 (stereo not drawn) [(1)]
IC50 [1]: 1 nM | forced swim test efficacy versus commercial drugs (FIG. 1) ([2]; i.p., racemic mixtures of diastereomers): performed equally well, if not better, than the commercial drugs Sibutramine, Bupropion, and Imipramine | forced swim test efficacy versus commercial drugs (FIG. 2, FIG. 3) ([2]; p.o., 35 or 75 mg/kg): performed equally well, if not better, than the commercial drugs Sibutramine, Bupropion, and Imipramine
